This passage reports AFI results from ChEMBL document CHEMBL3045176, “Occurrence of the antifeedant 14,15-dihydroajugapitin in the aerial parts of Ajuga iva from Algeria” (2000).

The test system of one experiment is Spodoptera littoralis. As to the kind of experiment: Antifeedant activity against final stadium larvae of Spodoptera littoralis in compound-treated sucrose-treated glass-fibre disks assessed as amount of disks eaten at 100 ppm after 18 hr by binary choice feeding bioassay. Type of experiment: functional.
In another experiment the test system is Spodoptera frugiperda. The experiment can be described thus: Antifeedant activity against final stadium larvae of Spodoptera frugiperda (fall armyworm) in compound-treated sucrose-treated glass-fibre discs assessed as amount of discs eaten at 100 ppm after 18 hr by binary choice feeding bioassay. It counts as functional.

As to `CC[C@H](C)C(=O)O[C@H]1[C@H](O)C[C@@H]2[C@@](C)([C@@H]3C[C@H]4CCO[C@H]4O3)[C@H](C)C[C@H](OC(C)=O)[C@@]2(COC(C)=O)[C@@]12CO2` [14,15-DIHYDROAJUGAPITIN], the AFI is 76% with Spodoptera littoralis and 74% in the experiment with Spodoptera frugiperda.

Regarding `CC[C@H](C)C(=O)O[C@H]1[C@@H](O)C[C@@H]2[C@@](C)([C@@H]3C[C@H]4CCO[C@H]4O3)[C@H](C)C[C@H](OC(C)=O)[C@@]2(COC(C)=O)[C@@]12CO2` [IVAIN IV], the AFI was determined as 48% in the experiment with Spodoptera littoralis and 61% with Spodoptera frugiperda.
